The text below walks through data of patent US20090299049A1, “Bicyclic Compounds and Their Use” (priority 2006, published 2009).

As a reminder, the melting point is the temperature, or range, at which the solid turns liquid.

One data set deals with T7 RNA polymerase (Escherichia phage T7, UniProt P00573). Kind of data set: Gel-based in vitro transcription assay with the ATP analogue as substrate. In kind it is biochemical, bacteriophage T7. The conditions noted are these: for Length of RNA products observed: Mg^2+ co-factor, analogue in place of ATP. The text has this: (§1) In vitro assays of hepatitis C virus (HCV) and bacteriophage T7 RNA polymerases have been performed using adenosine ribonucleotide triphosphate analogues of the present invention as a substrate (in place of natural ATP). Both unincorporated and incorporated fluorescent purine ribonucleotide analogues could be visualised directly under UV trans-illumination in either agarose or polyacrylamide gels without ethidium bromide staining. The RNA products generated in the transcription assay were characterised by 6% or 20% polyacrylamide gel electrophoresis (PAGE) under denaturing (7 M urea) conditions. […] The expected full-length (˜500 bases) RNA products were not observed by denaturing 6% PAGE. Short RNA products were separated by denaturing 20% PAGE. […] The analogues are also incorporated at a slower rate than the natural substrates. Incorporation of the first and second adenosine (underlined adenosine residues in the Table below) into the RNA product occurs with two templates tested, but adjacent adenosine analogues terminate transcription before the third adenosine in each template is incorporated. Two adjacent adenosine analogues may be too large for the active site, thus RNA synthesis is terminated and the product released.
RNA products formed using the HCV 3′-UTR and T7 φ13 promoter DNA templates in gel-based transcription assays of T7 RNA polymerase and 8-phenylethynyl-adenosine triphosphate: […]

The target of the next data set is T1, HCV RNA polymerase (Hepatitis C virus genotype 1a, UniProt P27958).
T1 construct: results with HCV and T7 RNA polymerases using 8-phenylethynyl-adenosine triphosphate as a substrate
The data set is described as follows: In vitro RNA polymerase assay with the ATP analogue as substrate. In kind it is biochemical.
Excerpt: as §1

Data set [1] is described as follows: Optical properties: UV-visible spectra, fluorescence excitation and emission. Format: physicochemical. Conditions: for Stokes shift: (1/λex − 1 λem); for λem: fluorescence emission wavelength; for λex: fluorescence excitation wavelength. The text has this:
The optical properties of several novel chromophores were investigated. UV-visible spectra reveal an intense absorption in the UV region for all the compounds evaluated.

Data set [2] can be described thus: UV absorbance and fluorescence of ribonucleoside analogues in DMSO (molar extinction coefficient, quantum yield). In kind it is physicochemical. Conditions: for Quantum yield: relative to quinine sulphate and anthracene standards. The source says:
UV absorbance and fluorescence excitation and emission data were used to determine the molar extinction coefficient and fluorescence quantum yield of a several adenosine and guanosine ribonucleoside analogues in DMSO (see the Table below). The data acquired support the concept that the fluorescence properties of these analogues can be tuned by altering the electron-donating or electron-withdrawing R-group on the terminal phenylalkyne. Fourteen electron-donating or electron-withdrawing R-groups were coupled to purine bases at the 8-position. […] This makes the analogues extremely useful for the quantification of analogue-containing nucleic acid products in a DNA or RNA background. […] The position (ortho, meta or para) of the R-group on the phenyl ring can also be used to tune the fluorescent properties of the analogues. The ring position of the R-group has a smaller effect on the fluorescent properties of the analogues. Greater changes in the excitation/emission wavelength, molar extinction coefficient and quantum yield can be induced by changing the type of R-group (electron-donating vs. electron-withdrawing) as compared to the position of a R-group on the phenyl ring (ortho, meta or para). The quantum yields of the unphosphorylated analogues were measured relative to quinine sulphate and anthracene standards. […] This provides additional support for the idea that the purine bases can both push and pull electrons in π-conjugated systems.

Setting [3] is: Mg^2+ as co-factor, depending on DNA template.

Sequence of T7 RNA polymerase (P00573 whole entry): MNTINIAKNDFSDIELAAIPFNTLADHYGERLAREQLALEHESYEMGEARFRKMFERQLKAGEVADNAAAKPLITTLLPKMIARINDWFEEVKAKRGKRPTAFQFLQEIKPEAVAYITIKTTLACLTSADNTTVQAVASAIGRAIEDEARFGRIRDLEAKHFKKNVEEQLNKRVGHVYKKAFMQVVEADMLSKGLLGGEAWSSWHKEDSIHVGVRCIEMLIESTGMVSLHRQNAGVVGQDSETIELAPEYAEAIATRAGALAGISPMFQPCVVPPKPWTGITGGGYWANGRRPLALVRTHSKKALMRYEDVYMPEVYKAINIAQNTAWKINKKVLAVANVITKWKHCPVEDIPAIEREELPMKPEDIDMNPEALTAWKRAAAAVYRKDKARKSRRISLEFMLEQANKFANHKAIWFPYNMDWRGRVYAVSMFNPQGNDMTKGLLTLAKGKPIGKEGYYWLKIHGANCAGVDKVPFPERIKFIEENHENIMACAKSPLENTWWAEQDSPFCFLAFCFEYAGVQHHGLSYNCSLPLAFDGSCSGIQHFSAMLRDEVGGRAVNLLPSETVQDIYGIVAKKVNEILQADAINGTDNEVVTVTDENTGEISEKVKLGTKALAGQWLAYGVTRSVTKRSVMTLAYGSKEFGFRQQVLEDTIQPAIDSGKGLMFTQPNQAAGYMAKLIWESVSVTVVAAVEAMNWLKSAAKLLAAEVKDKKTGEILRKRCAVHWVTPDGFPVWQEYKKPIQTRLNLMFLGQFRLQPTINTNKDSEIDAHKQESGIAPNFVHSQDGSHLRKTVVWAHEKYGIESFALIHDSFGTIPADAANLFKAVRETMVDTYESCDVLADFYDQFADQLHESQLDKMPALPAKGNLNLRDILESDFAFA
T1 sequence (P27958 2421-3011): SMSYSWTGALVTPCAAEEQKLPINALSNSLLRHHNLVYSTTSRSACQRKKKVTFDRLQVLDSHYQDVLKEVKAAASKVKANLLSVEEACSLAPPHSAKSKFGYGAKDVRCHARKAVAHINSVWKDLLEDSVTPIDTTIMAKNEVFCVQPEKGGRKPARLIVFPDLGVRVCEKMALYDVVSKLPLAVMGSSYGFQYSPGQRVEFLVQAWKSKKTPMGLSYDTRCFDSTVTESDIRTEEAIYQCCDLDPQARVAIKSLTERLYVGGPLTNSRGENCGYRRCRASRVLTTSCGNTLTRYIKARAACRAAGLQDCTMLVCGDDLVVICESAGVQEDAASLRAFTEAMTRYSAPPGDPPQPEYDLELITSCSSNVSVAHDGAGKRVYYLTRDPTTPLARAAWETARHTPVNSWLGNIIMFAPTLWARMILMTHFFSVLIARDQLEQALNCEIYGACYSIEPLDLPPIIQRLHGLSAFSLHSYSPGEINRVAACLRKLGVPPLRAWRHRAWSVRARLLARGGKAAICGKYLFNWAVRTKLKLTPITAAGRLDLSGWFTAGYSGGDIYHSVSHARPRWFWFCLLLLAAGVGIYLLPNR

Regarding `Nc1ncnc2c1nc(C#Cc1ccccc1)n2[C@@H]1O[C@H](COP(=O)(O)OP(=O)(O)OP(=O)(O)O)[C@@H](O)[C@H]1O` [8-phenylethynyl-adenosine triphosphate], the “Length of RNA products observed” value is 6 mer, 9 mer at T7 RNA polymerase (HCV 3′-UTR DNA template) and 4 mer, 6 mer on T7 RNA polymerase (T7 φ13 promoter DNA template). The “RNA transcripts yielded with analogue as substrate” value at T7 RNA polymerase (setting [3]) and on HCV RNA polymerase (setting [3]) was “short RNA transcripts” each time. In addition, the “Expected full-length (˜500 bases) RNA products” value on T7 RNA polymerase (denaturing 6% PAGE) and on HCV RNA polymerase (denaturing 6% PAGE) was “not observed” in each case. In addition, the “Length of small RNA products into which the analogue is incorporated” value at T7 RNA polymerase (denaturing 20% PAGE) is on record as 4-9 bases.
With `Cc1ccc(C#Cc2nc3c(N)ncnc3n2[C@@H]2O[C@H](CO)[C@@H](O)[C@H]2O)cc1` [Compound 6b, 8-(4′-Methylphenylethynyl)adenosine], the melting point was 196 to 198 °C (dec.). In data set [1], the Stokes shift is 3126 cm⁻¹, the λem is given as 393 nm and the λex was 350 nm. Also, in data set [2], the Molar absorption coefficient amounted to 18772 M⁻¹ cm⁻¹, the “Wavelength at fluorescence emission maximum” value is 393 nm, the “Wavelength at maximum in UV absorption” value stood at 323 nm and the Quantum yield is recorded as 54%.
`COc1ccc(C#Cc2nc3c(N)ncnc3n2[C@@H]2O[C@H](CO)[C@@H](O)[C@H]2O)cc1` [Compound 6c, 8-(4-methoxyphenylethynyl)-adenosine]: the melting point was 198 to 202 °C (dec.). In data set [1], the Stokes shift was determined as 1933 cm⁻¹, the λem came out at 380 nm and the λex is reported as 354 nm. Also, the “Absorption maxima shift relative to compound 7a (parent)” value in data set [1] (compared with the guanosine series) is recorded as “more significant differences”. In data set [2], the Molar absorption coefficient is 18176 M⁻¹ cm⁻¹, the “Wavelength at fluorescence emission maximum” value is recorded as 380 nm, the “Wavelength at maximum in UV absorption” value is listed as 326 nm and the Quantum yield turned out to be 24%.
Consider `CSc1ccc(C#Cc2nc3c(N)ncnc3n2[C@@H]2O[C@H](CO)[C@@H](O)[C@H]2O)cc1` [Compound 6d, 8-(4-Methylsulfanylphenylethynyl)adenosine], for which the melting point was 184 to 188 °C (dec.). For the same compound, in data set [1], the Stokes shift worked out at 1921 cm⁻¹, the λem came out at 396 nm and the λex is listed as 368 nm. For the same compound, in data set [2], the Molar absorption coefficient was 26019 M⁻¹ cm⁻¹, the “Wavelength at maximum in UV absorption” value is given as 338 nm and the Quantum yield turned out to be 67%.
Consider `Nc1ncnc2c1nc(C#Cc1ccc(C(F)(F)F)cc1)n2[C@@H]1O[C@H](CO)[C@@H](O)[C@H]1O` [Compound 6g, 8-(4′-Trifluoromethylphenylethynyl)adenosine], for which the melting point is 196 to 198 °C (dec.). Also, in data set [1], the Stokes shift was 4897 cm⁻¹, the λem came to 440 nm and the λex is 362 nm. Besides, in data set [2], the “Wavelength at fluorescence emission maximum” value is listed as 436 nm, the “Wavelength at maximum in UV absorption” value was 333 nm and the Quantum yield is listed as 8.8%.
